What all share (test): cells
Design in all cases: Oncolines panel cell viability, ATPlite 1Step luminescence, duplicate 9-point dose response, IC50

One assay relates to 786-O. The settings on record: Homo sapiens, 786-0; 72 h viability; read-out: SJ3149. On the procedure:
(§1) Cell viability assays were performed as previously described. In brief, cells were seeded in a 384-well plate at an optimized density. The starting cell number was determined after 24 h incubation by adding ATPlite 1Step (Perkin Elmer, Groningen, the Netherlands) to each well and recording luminescence on an Envision multimode reader (Perkin Elmer, Waltham, MA). After the addition of a duplicate 9-point dilution series of SJ3149, cells were incubated for another 72 h, followed by cell counting using ATPlite 1Step. The dilution series ranged from 3.2 to 31,600 nM or was diluted 100-fold for the most sensitive cell lines to ideally capture the complete dose–response curve. Percentage viability was determined at each compound concentration by relating the observed signal to a vehicle-treated control, that is, medium containing 0.4% (v/v) DMSO. Compound IC50 values were calculated by fitting a 4-parameter logistic curve to the percentage viability values using IDBS XLfit5 (IDBS, Guildford, UK). The IC50 was limited to the maximum tested compound concentration when the IC50 exceeded the maximum tested concentration. […] To evaluate the compound’s effect and potential therapeutic application across a diverse range of human cancers, we profiled SJ3149 in Oncolines® panel consisting of 115 human cancer cell lines, of which 86 were solid tumor and 29 hematologic cell lines, including MOLM-13. Effect on cell viability was monitored using ATPLite™ (Perkin Elmer), which measures intracellular ATP content as an indirect readout of cell number, like CellTiter Glo.

The next assay relates to AP-1060. The settings on record: 72 h viability; read-out: SJ3149. As to the method:
as §1

The next assay concerns AsPC-1. The settings on record: Homo sapiens, ASPC1; 72 h viability; read-out: SJ3149. On the procedure: as §1
The test system of a further assay is BxPC-3. As to conditions: Homo sapiens, BXPC-3; 72 h viability; read-out: SJ3149. On the procedure:
as §1

For another assay, the system named is CAL 27. The settings on record: Homo sapiens, CAL-27; 72 h viability; read-out: SJ3149. On the procedure:
as §1

A further assay relates to COLO 205. The settings on record: Homo sapiens, COLO 205; 72 h viability; read-out: SJ3149. As to the method:
as §1

A further assay deals with COLO 829. As to conditions: Homo sapiens, COLO-829; 72 h viability; read-out: SJ3149. As to the method: as §1
In a further assay the test system is ES-2. As to conditions: Homo sapiens, ES-2; 72 h viability; read-out: SJ3149. On the procedure: as §1
A further assay relates to G-361. The settings on record: Homo sapiens, G-361; 72 h viability; read-out: SJ3149. On the procedure: as §1
The subject of a further assay is HCT-15. The settings on record: Homo sapiens, HCT-15; 72 h viability; read-out: SJ3149. As to the method:
as §1

Another assay concerns K-562. As to conditions: Homo sapiens, K562; 72 h viability; read-out: SJ3149. On the procedure: as §1
In the next assay the test system is MG-63. The settings on record: Homo sapiens, MG-63; 72 h viability; read-out: SJ3149. On the procedure:
as §1

Another assay has as its system MIA PaCa-2. The settings on record: Homo sapiens, MIA PaCa-2; 72 h viability; read-out: SJ3149. As to the method: as §1
For the next assay, the system named is OVCAR-3. As to conditions: Homo sapiens, OVCAR-3; 72 h viability; read-out: SJ3149. On the procedure:
as §1

The next assay relates to SK-N-AS. The settings on record: Homo sapiens, SK-N-AS; 72 h viability; read-out: SJ3149. On the procedure:
as §1

Another assay has as its system SNU-5. As to conditions: Homo sapiens, SNU-5; 72 h viability; read-out: SJ3149. As to the method: as §1
The next assay has as its system SNU-C2B. As to conditions: Homo sapiens, SNU-C2B; 72 h viability; read-out: SJ3149. On the procedure: as §1
For a further assay, the system named is SW480. The settings on record: Homo sapiens, SW480; 72 h viability; read-out: SJ3149. As to the method:
as §1

Another assay concerns T24. As to conditions: Homo sapiens, T-24; 72 h viability; read-out: SJ3149. On the procedure: as §1
The subject of a further assay is U-87 MG. As to conditions: Homo sapiens, U-87 MG; 72 h viability; read-out: SJ3149. As to the method:
as §1

Each structure is given as a SMILES string.

On to `O=C1CCC(N2Cc3cc(Nc4noc5ccccc45)ccc3C2=O)C(=O)N1` (centres unmarked) [SJ3149], for which the IC50 in the assay with 786-O is above 31.6 µM; with AP-1060 it was 0.00135 µM; in the assay on AsPC-1 it was above 31.6 µM; in the assay with BxPC-3, above 31.6 µM; in the assay on CAL 27 it was above 31.6 µM; in the assay on COLO 205, above 31.6 µM. Moreover, the IC50 in the assay on COLO 829, with ES-2, in the assay on G-361, with HCT-15, in the assay with K-562 and in the assay with MG-63 was above 31.6 µM each time. Moreover, the IC50 in the assay with MIA PaCa-2, in the assay with OVCAR-3, in the assay on SK-N-AS, in the assay with SNU-5, with SNU-C2B and with SW480 was above 31.6 µM in each case. For the same molecule, the IC50 in the assay on T24 and with U-87 MG was above 31.6 µM throughout.

Values taken from paper PMC10791743, “Selective CK1α degraders exert antiproliferative activity against a broad range of human cancer cell lines” (Nature Communications, 2024).
